From BindingDB's records for doi:10.1021/jm00151a024 (1986)

Experiment: Apparent binding affinity for Alanine racemase from Pseudomonas aeruginosa

Row | Structure (SMILES) | Ki
1 | NC(C(Cl)Cl)P(=O)(O)O (configuration not stated) [(1-Amino-2,2-dichloro-ethyl)-phosphonic acid] | 2 mM
2 | NC(CCl)P(=O)(O)O (configuration not stated) [(1-Amino-2-chloro-ethyl)-phosphonic acid] | 0.82 mM
